# Measurements as given in ChEMBL document CHEMBL5050845, “Enhancers of neurolysin activity” (2020).
# Activity calls are given as the source filed them. No cut-off for these calls is given here. Peptide text beside a SMILES is read from it. * marks the point of attachment. NHPhenethyl = c1ccc(CCN*)cc1; Boc = CC(C)(C)OC(=O)*
# How the values were obtained:
# Rattus norvegicus [1] = organism: Rattus norvegicus; assay: Positive allosteric modulation of recombinant N-terminal poly-His tagged rat neurolysin using Mca-Pro-Leu- Gly-Pro-D-Lys(DNP)-OH as substrate assessed as Amax and measured by fluorescence based assay relative to control
# Rattus norvegicus [2] = organism: Rattus norvegicus; assay: Positive allosteric modulation of recombinant N-terminal poly-His tagged rat neurolysin using Mca-Pro-Leu- Gly-Pro-D-Lys(DNP)-OH as substrate and measured by fluorescence based assay
# [3] = Inhibition of recombinant N-terminal poly-His tagged rat neurolysin using Mca-Pro-Leu- Gly-Pro-D-Lys(DNP)-OH as substrate in presence of 100 uM NSC 374121 and measured by fluorescence based assay relative to control
# [4] = Inhibition of recombinant N-terminal poly-His tagged rat neurolysin using Mca-Pro-Leu- Gly-Pro-D-Lys(DNP)-OH as substrate in presence of 100 uM NSC 523374 and measured by fluorescence based assay relative to control
# Rattus norvegicus [5] = organism: Rattus norvegicus; assay: Positive allosteric modulation of catalytic activity of recombinant N-terminal poly-His tagged rat neurolysin at 40 uM assessed as Km measured fluorescence assay; conditions: filed as positive allosteric modulator
# Rattus norvegicus [6] = organism: Rattus norvegicus; assay: Positive allosteric modulation of recombinant N-terminal poly-His tagged rat neurolysin at 100 uM assessed fold increase in formation of angiotensin (1 to 7) from angiotensin I and measured by mass spectrometry analysis; conditions: filed as positive allosteric modulator
# [7] = target: Angiotensin-converting enzyme (Homo sapiens) (UniProt P12821); assay: Inhibition of recombinant C-terminal 10His-tagged human ACE at 300 uM using Mca-Arg-Pro-Pro-Gly-Phe-Ser-Ala-Phe-Lys(Dnp)-OH as substrate and measured by fluorescence based assay relative to control
# Rattus norvegicus [8] = organism: Rattus norvegicus; assay: Positive allosteric modulation of catalytic activity of recombinant N-terminal poly-His tagged rat neurolysin at 40 uM assessed as Vmax as fluorescent unit/ng protein and measured fluorescence assay; conditions: filed as positive allosteric modulator
# Homo sapiens [9] = organism: Homo sapiens; assay: Positive allosteric modulation of recombinant N-terminal Met and His-tagged human neurolysin using Mca-Pro-Leu- Gly-Pro-D-Lys(DNP)-OH as substrate and measured by fluorescence based assay relative to control; conditions: filed as positive allosteric modulator
# Rattus norvegicus [10] = organism: Rattus norvegicus; assay: Positive allosteric modulation of recombinant N-terminal poly-His tagged rat neurolysin at 100 uM assessed fold increase in formation of bradykinin (1 to 5) from bradykinin and measured by mass spectrometry analysis; conditions: filed as positive allosteric modulator
# Rattus norvegicus [11] = organism: Rattus norvegicus; assay: Positive allosteric modulation of catalytic activity of recombinant N-terminal poly-His tagged rat neurolysin assessed as effect on fluorescence signal of Mca-Pro-Leu-OH and measured fluorescence assay
# Rattus norvegicus [12] = organism: Rattus norvegicus; assay: Positive allosteric modulation of recombinant N-terminal poly-His tagged rat neurolysin at 100 uM assessed fold increase in formation of neurotensin (1 to 10) from neurotensin and measured by mass spectrometry analysis; conditions: filed as positive allosteric modulator
# Rattus norvegicus [13] = organism: Rattus norvegicus; assay: Positive allosteric modulation of catalytic activity of recombinant N-terminal poly-His tagged rat neurolysin using Mca-Pro-Leu- Gly-Pro-D-Lys(DNP)-OH as substrate and measured by fluorescence based assay relative to control; conditions: filed as positive allosteric modulator
# [14] = target: Angiotensin-converting enzyme 2 (Homo sapiens) (UniProt Q9BYF1); assay: Inhibition of recombinant N-terminal Met and His-tagged human ACE2 at 300 uM using Mca-Ala-Pro-Lys-(Dnp)-OH as substrate and measured by fluorescence based assay relative to control
# Mus musculus = organism: Mus musculus; assay: Positive allosteric modulation of neurolysin in mouse brain using Mca-Pro-Leu- Gly-Pro-D-Lys(DNP)-OH as substrate and measured by fluorescence based assay relative to control; type: tissue-based; conditions: filed as positive allosteric modulator
# [15] = target: Neprilysin (Homo sapiens) (UniProt P08473); assay: Inhibition of recombinant N-terminal 6His-tagged human neprilysin expressed in CHO cells at 300 uM using Mca-Arg-Pro-Pro-Gly-Phe-Ser-Ala-Phe-Lys(Dnp)-OH as substrate and measured by fluorescence based assay relative to control
# Rattus norvegicus [16] = organism: Rattus norvegicus; assay: Positive allosteric modulation of catalytic activity of recombinant N-terminal poly-His tagged rat neurolysin using Mca-Pro-Leu- Gly-Pro-D-Lys(DNP)-OH as substrate in presence of 1 uM dynoprhin A (1 to 13) and measured by fluorescence based assay relative to control; conditions: filed as positive allosteric modulator
# Rattus norvegicus [17] = organism: Rattus norvegicus; assay: Positive allosteric modulation of catalytic activity of recombinant N-terminal poly-His tagged rat neurolysin at 100 uM assessed as Vmax as fluorescent unit/ng protein measured fluorescence assay; conditions: filed as positive allosteric modulator
# Rattus norvegicus [18] = organism: Rattus norvegicus; assay: Positive allosteric modulation of catalytic activity of recombinant N-terminal poly-His tagged rat neurolysin at 100 uM assessed as Km measured fluorescence assay; conditions: filed as positive allosteric modulator
# Homo sapiens [19] = organism: Homo sapiens; assay: Inhibition of recombinant N-terminal Met and His-tagged human Thimet oligopeptidase at 300 uM using Mca-Pro-Leu-Gly-Pro-D-Lys(DNP)-OH as substrate and measured by fluorescence based assay relative to control
# [20] = filed as positive allosteric modulator
# Chain of Neprilysin (Homo sapiens) (P08473 whole entry): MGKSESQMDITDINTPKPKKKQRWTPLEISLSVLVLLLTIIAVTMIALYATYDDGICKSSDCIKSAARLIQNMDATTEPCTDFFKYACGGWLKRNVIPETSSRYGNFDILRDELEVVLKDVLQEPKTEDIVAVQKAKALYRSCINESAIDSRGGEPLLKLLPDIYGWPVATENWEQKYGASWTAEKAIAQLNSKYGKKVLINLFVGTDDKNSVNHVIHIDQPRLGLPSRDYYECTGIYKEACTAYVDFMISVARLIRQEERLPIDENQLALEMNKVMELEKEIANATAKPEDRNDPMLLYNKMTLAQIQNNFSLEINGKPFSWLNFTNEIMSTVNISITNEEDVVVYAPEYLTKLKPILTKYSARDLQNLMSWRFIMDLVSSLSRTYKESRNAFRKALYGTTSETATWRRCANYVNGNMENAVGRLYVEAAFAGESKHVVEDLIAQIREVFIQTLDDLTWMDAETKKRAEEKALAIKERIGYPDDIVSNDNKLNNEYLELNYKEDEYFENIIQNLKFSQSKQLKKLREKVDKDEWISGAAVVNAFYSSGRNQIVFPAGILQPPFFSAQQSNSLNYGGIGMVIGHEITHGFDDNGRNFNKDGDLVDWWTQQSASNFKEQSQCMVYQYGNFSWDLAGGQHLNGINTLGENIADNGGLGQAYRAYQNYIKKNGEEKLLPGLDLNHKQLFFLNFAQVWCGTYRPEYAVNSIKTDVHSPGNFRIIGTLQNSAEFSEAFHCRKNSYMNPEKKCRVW
# Chain of Angiotensin-converting enzyme 2 (Homo sapiens) (Q9BYF1 18-805 limits assumed): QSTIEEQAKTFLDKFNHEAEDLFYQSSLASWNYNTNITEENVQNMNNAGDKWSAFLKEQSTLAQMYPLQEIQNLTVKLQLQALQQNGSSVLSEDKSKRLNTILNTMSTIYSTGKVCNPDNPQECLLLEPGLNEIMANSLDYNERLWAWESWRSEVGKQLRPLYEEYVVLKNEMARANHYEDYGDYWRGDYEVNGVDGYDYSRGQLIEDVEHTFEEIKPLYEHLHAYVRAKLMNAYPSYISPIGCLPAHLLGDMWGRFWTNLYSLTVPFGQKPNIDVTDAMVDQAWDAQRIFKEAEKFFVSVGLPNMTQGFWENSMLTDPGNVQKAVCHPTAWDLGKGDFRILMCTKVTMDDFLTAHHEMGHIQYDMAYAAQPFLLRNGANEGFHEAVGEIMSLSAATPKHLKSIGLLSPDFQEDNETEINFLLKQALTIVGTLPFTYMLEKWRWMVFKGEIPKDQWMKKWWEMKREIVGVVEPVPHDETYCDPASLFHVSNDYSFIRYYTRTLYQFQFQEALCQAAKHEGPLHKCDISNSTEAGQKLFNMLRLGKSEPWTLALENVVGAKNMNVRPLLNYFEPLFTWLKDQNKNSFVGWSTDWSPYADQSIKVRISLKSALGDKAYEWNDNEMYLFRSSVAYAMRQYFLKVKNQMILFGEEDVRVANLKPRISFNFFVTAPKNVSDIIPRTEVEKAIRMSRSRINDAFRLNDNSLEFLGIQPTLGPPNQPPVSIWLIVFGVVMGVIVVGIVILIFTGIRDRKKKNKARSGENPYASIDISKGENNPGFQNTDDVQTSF
# Chain of Angiotensin-converting enzyme (Homo sapiens) (P12821 whole entry): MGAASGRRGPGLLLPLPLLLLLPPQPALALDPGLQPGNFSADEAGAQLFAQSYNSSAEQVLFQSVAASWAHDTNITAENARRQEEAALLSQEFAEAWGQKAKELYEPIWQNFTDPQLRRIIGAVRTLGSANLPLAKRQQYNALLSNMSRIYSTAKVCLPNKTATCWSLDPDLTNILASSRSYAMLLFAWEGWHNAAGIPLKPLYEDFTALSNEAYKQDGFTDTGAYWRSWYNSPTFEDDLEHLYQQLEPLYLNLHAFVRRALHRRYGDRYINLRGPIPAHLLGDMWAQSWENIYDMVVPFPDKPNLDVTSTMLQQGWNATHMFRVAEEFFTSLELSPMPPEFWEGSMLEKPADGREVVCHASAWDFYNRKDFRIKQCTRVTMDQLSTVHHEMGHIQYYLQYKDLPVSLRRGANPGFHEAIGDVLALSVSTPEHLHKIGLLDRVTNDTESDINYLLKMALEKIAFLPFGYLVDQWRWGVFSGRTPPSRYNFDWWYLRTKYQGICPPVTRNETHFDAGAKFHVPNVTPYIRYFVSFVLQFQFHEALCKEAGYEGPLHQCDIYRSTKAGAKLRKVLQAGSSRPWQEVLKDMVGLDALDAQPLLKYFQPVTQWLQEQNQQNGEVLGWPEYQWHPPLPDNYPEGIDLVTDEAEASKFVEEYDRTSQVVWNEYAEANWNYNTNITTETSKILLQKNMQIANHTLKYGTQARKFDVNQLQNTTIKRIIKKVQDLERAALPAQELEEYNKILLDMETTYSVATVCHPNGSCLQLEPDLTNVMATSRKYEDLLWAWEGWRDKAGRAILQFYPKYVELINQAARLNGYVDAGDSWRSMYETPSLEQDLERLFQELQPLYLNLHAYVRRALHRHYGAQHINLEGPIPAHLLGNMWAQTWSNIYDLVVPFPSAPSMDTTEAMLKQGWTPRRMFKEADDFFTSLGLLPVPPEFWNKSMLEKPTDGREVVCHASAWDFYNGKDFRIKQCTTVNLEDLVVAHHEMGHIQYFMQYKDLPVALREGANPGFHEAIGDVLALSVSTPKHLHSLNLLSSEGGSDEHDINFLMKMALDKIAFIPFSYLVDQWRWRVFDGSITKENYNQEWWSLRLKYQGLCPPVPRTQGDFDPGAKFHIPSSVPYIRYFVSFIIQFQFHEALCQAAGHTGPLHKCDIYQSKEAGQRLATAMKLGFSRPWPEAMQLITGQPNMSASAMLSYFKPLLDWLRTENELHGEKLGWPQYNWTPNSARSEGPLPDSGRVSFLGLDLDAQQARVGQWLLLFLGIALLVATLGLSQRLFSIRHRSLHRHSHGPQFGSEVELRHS
compound,measurement,setting,value
COc1cccc(CNC(=O)[C@H](N)Cc2cnc[nH]2)c1,Emax,Rattus norvegicus [1]; [20],477%
N[C@@H](Cc1c[nH]cn1)C(=O)Nc1ccccc1,A50,Rattus norvegicus [2]; [20],7.74 µM
same,Emax,Rattus norvegicus [1]; [20],140%
CC(C)(C)OC(=O)N[C@@H](Cc1c[nH]cn1)C(=O)NCCc1cc2ccccc2[nH]1,A50,Rattus norvegicus [2],inactive
same,Emax,Rattus norvegicus [1],inactive
N[C@@H](Cc1cnc[nH]1)C(=O)N[C@@H](Cc1ccc(O)cc1)C(=O)O (H-His-Tyr-OH),Emax,Rattus norvegicus [1]; [20],467%
O=C1NC(Cc2c[nH]cn2)C(=O)N2CCCC12 (stereo not drawn),A50,Rattus norvegicus [2],inactive
same,Emax,Rattus norvegicus [1],inactive
N[C@H](Cc1c[nH]cn1)C(=O)NCCc1ccc2ccccc2c1,Emax,Rattus norvegicus [1]; [20],340%
N[C@@H](Cc1c[nH]cn1)C(=O)NCc1ccc(C(F)(F)F)cc1,Emax,Rattus norvegicus [1]; [20],305%
O=C(CCc1cnc[nH]1)NCCc1c[nH]c2ccccc12,A50,Rattus norvegicus [2],inactive
same,Emax,Rattus norvegicus [1],inactive
N[C@@H](Cc1c[nH]cn1)C(=O)NCCc1ccc(F)cc1,A50,Rattus norvegicus [2]; [20],27.9 µM
same,Emax,Rattus norvegicus [1]; [20],323%
N[C@H](Cc1cnc[nH]1)C(=O)NCc1cccc(C(F)(F)F)c1,Emax,Rattus norvegicus [1]; [20],184%
N[C@@H](Cc1c[nH]cn1)C(=O)NCc1cccc(C(F)(F)F)c1,Emax,Rattus norvegicus [1]; [20],494%
N[C@@H](Cc1ccccn1)C(=O)NCCc1ccccc1,A50,Rattus norvegicus [2],inactive
same,Emax,Rattus norvegicus [1],inactive
N[C@@H](Cc1cnc[nH]1)C(=O)N[C@@H](Cc1ccccc1)C(=O)O (H-His-Phe-OH),A50,Rattus norvegicus [2]; [20],130 µM
same,Emax,Rattus norvegicus [1]; [20],573%
N[C@H](Cc1c[nH]cn1)C(=O)NCCc1ccccc1,Emax,Rattus norvegicus [1]; [20],407%
COc1ccc(CNC(=O)[C@@H](N)Cc2c[nH]cn2)cc1,Emax,Rattus norvegicus [1]; [20],429%
N[C@H](Cc1c[nH]cn1)C(=O)NCCc1ccc(C(F)(F)F)cc1,Emax,Rattus norvegicus [1]; [20],643%
COc1cccc(CCNC(=O)[C@H](N)Cc2c[nH]cn2)c1,Emax,Rattus norvegicus [1]; [20],255%
CC[C@H](C)[C@H](NC(=O)[C@H](CCCNC(=N)N)NC(=O)[C@H](CCCNC(=N)N)NC(=O)[C@H](CC(C)C)NC(=O)[C@H](Cc1ccccc1)NC(=O)CNC(=O)CNC(=O)[C@@H](N)Cc1ccc(O)cc1)C(=O)N[C@@H](CCCNC(=N)N)C(=O)N1CCC[C@H]1C(=O)N[C@@H](CCCCN)C(=O)N[C@@H](CC(C)C)C(=O)N[C@@H](CCCCN)C(=O)O [ANALOG OF DYNORPHIN A],Ki,[3],700 nM
same,Ki,[4],600 nM
N[C@H](Cc1c[nH]cn1)C(=O)NCCc1ccccc1C(F)(F)F,Emax,Rattus norvegicus [1]; [20],396%
N[C@@H](Cc1c[nH]cn1)C(=O)NCCc1ccc(C(F)(F)F)cc1,Emax,Rattus norvegicus [1]; [20],438%
N[C@@H](Cc1c[nH]cn1)C(=O)N1CCCC1,Emax,Rattus norvegicus [1]; [20],173%
N[C@@H](Cc1c[nH]cn1)C(=O)N[C@@H](Cc1ccccc1)C(=O)NCCc1ccccc1 (H-His-Phe-NHPhenethyl),A50,Rattus norvegicus [2]; [20],5.4 µM
same,Emax,Rattus norvegicus [1]; [20],178%
N[C@@H](Cc1c[nH]cn1)C(=O)NCCc1ccc2ccccc2c1,Emax,Rattus norvegicus [1]; [20],324%
N[C@@H](Cc1c[nH]cn1)C(=O)N[C@H](Cc1cc2ccccc2[nH]1)C(=O)O,Emax,Rattus norvegicus [1]; [20],440%
N[C@@H](Cc1c[nH]cn1)C(=O)NCc1cccc2ccccc12,Emax,Rattus norvegicus [1]; [20],264%
N[C@H](Cc1c[nH]cn1)C(=O)NCc1cccc2ccccc12,Emax,Rattus norvegicus [1]; [20],343%
N[C@@H](Cc1c[nH]cn1)C(=O)NCc1ccc(F)cc1,Emax,Rattus norvegicus [1]; [20],252%
CC(C)(C)OC(=O)N[C@@H](Cc1c[nH]cn1)C(=O)N[C@@H](Cc1ccccc1)C(=O)O (Boc-His-Phe-OH),A50,Rattus norvegicus [2],inactive
same,Emax,Rattus norvegicus [1],inactive
N[C@H](Cc1c[nH]cn1)C(=O)NCc1ccc(C(F)(F)F)cc1,Emax,Rattus norvegicus [1]; [20],599%
N[C@H](Cc1c[nH]cn1)C(=O)NCCc1cc2ccccc2[nH]1,Emax,Rattus norvegicus [1]; [20],132%
N[C@@H](Cc1c[nH]cn1)C(=O)NCCc1cc2ccccc2[nH]1,Emax,Rattus norvegicus [1]; [20],259%
N[C@@H](Cc1c[nH]cn1)C(=O)NCc1ccc2ccccc2c1,A50,Rattus norvegicus [2]; [20],12.3 µM
same,Emax,Rattus norvegicus [1]; [20],262%
COc1ccccc1CNC(=O)[C@H](N)Cc1c[nH]cn1,Emax,Rattus norvegicus [1]; [20],325%
COc1ccc(CNC(=O)[C@H](N)Cc2cnc[nH]2)cc1,Emax,Rattus norvegicus [1]; [20],704%
N[C@@H](Cc1c[nH]cn1)C(=O)NCCc1ccccc1,Emax,Rattus norvegicus [1]; [20],231%
N[C@@H](Cc1c[nH]cn1)C(=O)NCc1ccccc1C(F)(F)F,Emax,Rattus norvegicus [1]; [20],334%
CC(C)(C)OC(=O)N[C@@H](Cc1c[nH]cn1)C(=O)NCCc1c[nH]c2ccccc12,A50,Rattus norvegicus [2],inactive
same,Emax,Rattus norvegicus [1],inactive
COc1ccc(CCNC(=O)[C@@H](N)Cc2c[nH]cn2)cc1,Emax,Rattus norvegicus [1]; [20],544%
NC(Cc1c[nH]cn1)C(=O)NCCc1cc2ccccc2[nH]1 (racemic),Emax,Rattus norvegicus [1]; [20],311%
CC(C)(C)OC(=O)N[C@@H](Cc1c[nH]cn1)C(=O)NCCc1ccccc1,A50,Rattus norvegicus [2],inactive
same,Emax,Rattus norvegicus [1],inactive
NC(Cc1c[nH]cn1)C(=O)NC(Cc1ccc(O)cc1)C(=O)O (stereo not drawn) (H-His-Tyr-OH; configuration not given here),Km,Rattus norvegicus [5],7.9 µM
same,fold change (FC),Rattus norvegicus [6],6
same,inhibition,[7],22.6%
same,Vmax,Rattus norvegicus [8],124 min⁻¹
same,Emax,Homo sapiens [9],204%
same,fold change (FC),Rattus norvegicus [10],2
same,Activity,Rattus norvegicus [11],inactive
same,fold change (FC),Rattus norvegicus [12],3
same,Emax,Rattus norvegicus [13],235%
same,inhibition,[14],13.4%
same,Emax,Mus musculus,190%
same,inhibition,[15],2.9%
same,Emax,Rattus norvegicus [16],238%
same,Vmax,Rattus norvegicus [17],165 min⁻¹
same,Km,Rattus norvegicus [18],6.4 µM
same,inhibition,Homo sapiens [19],25.9%
NC(Cc1c[nH]cn1)C(=O)NC(Cc1c[nH]cn1)C(=O)O (stereo not drawn),Km,Rattus norvegicus [5],8 µM
same,inhibition,[7],12.2%
same,Vmax,Rattus norvegicus [8],112 min⁻¹
same,Emax,Homo sapiens [9],214%
same,Activity,Rattus norvegicus [11],inactive
same,Emax,Rattus norvegicus [13],203%
same,inhibition,[14],10.9%
same,Emax,Mus musculus,258%
same,inhibition,[15],1.6%
same,Emax,Rattus norvegicus [16],198%
same,Vmax,Rattus norvegicus [17],148 min⁻¹
same,Km,Rattus norvegicus [18],6.1 µM
same,inhibition,Homo sapiens [19],15.6%
N[C@@H](Cc1c[nH]cn1)C(=O)NCc1ccccc1,Emax,Rattus norvegicus [1]; [20],152%
